Assay [1] addresses T1, human NK2 receptor (Homo sapiens, UniProt P21452).
T1 construct: expressed in transfected cells; host or cells: Chinese Hamster Ovary (CHO) cells
T1 sequence (P21452 1-398): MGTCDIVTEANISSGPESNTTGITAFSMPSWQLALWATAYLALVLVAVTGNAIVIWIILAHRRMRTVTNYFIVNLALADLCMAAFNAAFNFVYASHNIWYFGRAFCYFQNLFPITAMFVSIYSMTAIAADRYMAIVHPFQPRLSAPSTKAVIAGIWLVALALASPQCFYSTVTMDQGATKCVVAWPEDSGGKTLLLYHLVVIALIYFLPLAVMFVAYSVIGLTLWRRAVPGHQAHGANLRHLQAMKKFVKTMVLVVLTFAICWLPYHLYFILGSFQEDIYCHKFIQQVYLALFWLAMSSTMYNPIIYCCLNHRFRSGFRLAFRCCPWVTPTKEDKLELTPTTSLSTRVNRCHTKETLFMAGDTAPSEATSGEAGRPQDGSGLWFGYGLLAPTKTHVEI
Description: [125I]neurokinin A radioligand binding assay, CHO cells expressing recombinant human NK2 receptor. The following applies: various concentrations. The procedure: The contents of Formulation A capsules were dissolved using various solvents and extracted using four different processes, as described in detail below. […] These isolates were called: Sample #19 Top Isolate, Sample #19 Bottom Isolate, Sample #20 Top Isolate, Sample #20 Bottom Isolate, Fraction X Isolate and Sample #2 Isolate. These isolates were then each tested in the radioligand binding assay.

Assay [2] concerns the target T1, human NK2 receptor. In words: Cellular/functional Ca2+ flux antagonist assay, CHO-K1 cells expressing recombinant human NK2 receptor. The assay is classed as cell-based. The following applies: 3×10^−7 M to 1×10^−4 M, agonist [bAla]-NKA (4-10) 0.3 nM, FIG. 12. How it is done: 6-methyl-myristic acid 2,3-dihydroxypropyl ester was synthesized as described above, and myristic acid 2,3-dihydroxypropyl ester was obtained. They were each prepared as solutions by addition of dimethyl sulfoxide (DMSO) to a concentration of 10 mM. These compounds were then used in cellular/functional calcium flux agonist and antagonist assays to determine the effect the compounds have on human NK2 receptor activity as measured by changes intracellular calcium measurements. These assays were carried out based on the method of Gerard et al.
The NK2 receptor antagonist assay was performed essentially as follows. CHO-K1 cells stably expressing recombinant human NK2 receptor were plated on mixed extracellular matrix overnight in complete media. One hour before the assay, the media was replaced with Hank's Buffered Salt Solution (HBSS) containing 0.1% bovine serum albumin. The cells were then loaded with dye that measures intracellular calcium and baseline measurements of intracellular calcium were taken. […] Fluorescence at 485 nm excitation/515 nm emission was measured every 2 seconds for at least two minutes. The peak height of fluorescence in each of the wells receiving controls, compound 2 or compound 3 was recorded and compared to the peak height of fluorescence in the wells receiving only the agonist. […]
Background: Calcium assays in cells follow changes in intracellular calcium, usually with a dye or a luminescent sensor.

For the compound `CCCCCCCCC(C)CCCCC(=O)OCC(O)CO` (stereo not shown) [6-methyl-myristic acid 2,3-dihydroxypropyl ester], the “effect on neurokinin A binding to the NK2 receptor (in words)” value at human NK2 receptor [1] is reported as “inhibited the ability of neurokinin A to bind the NK2 receptor in a concentration-dependent manner”. Further, at human NK2 receptor [2], the “antagonist activity in functional NK2 receptor antagonist assay (in words)” value is reported as “displayed antagonist activity”.
The corresponding values for `CCCCCCCCCCCCCC(=O)OCC(O)CO` (stereo not shown) [myristic acid 2,3-dihydroxypropyl ester] are “inhibited the ability of neurokinin A to bind the NK2 receptor” and “displayed antagonist activity”.

The values above are taken from patent publication US20120190743A1, “COMPOUNDS FOR TREATING DISORDERS OR DISEASES ASSOCIATED WITH NEUROKININ 2 RECEPTOR ACTIVITY” (UNITED PARAGON ASSOCIATES INC., priority 2009, published 2012).
